Source: patent publication US9913858B2, “Prevention and treatment of toxicosis” (priority 2013, dated 2018)

Test system: sheep
Test: Clinical pathology of serum and urine
Type: in vivo
Conditions: toxin only and acute treatment groups, not outside normal ranges
Excerpt: Venous blood samples collected for biochemical analysis and haematocrit (PCV), and urine for USG, at three specific time points during the experiment for all animals: 1) on entry to the trial; 2) on date of entry to the end of trial protocol and, 3) on day of necropsy. Additional venous blood samples were occasionally collected for analysis of serum bromide (see below).
For venous sampling, blood was collected from either the right or left jugular vein as determined by convenience and sampler preference. Needle hubs and sterile, single use 21 G needles and 10 mL Vacutainer® tubes were used for collection. Two Vacutainer® tube types were used for each animal: one containing a clot activator for serum collection, the other contained ethylenediamine tetra-acetic acid (EDTA) to prevent clotting. Tubes were inverted repetitively immediately after collection prior to storage on ice for transport to the laboratory. […]
Urine samples were collected by attachment of a clean plastic bag using SuperGlue™ to the fleece on either side of the preputial opening. […] Urine specific gravity (USG) was determined using a refractometer (VQ5600 refractometer, VetQuip, Australia).
Haematological and biochemical analysis was performed by the laboratory within 60 minutes of blood collection. Haematological analytes were measured using a CellDyn 3700 Haematology System (Abbott Diagnostics, Abbott Park, Ill., USA). […]

For `CC(C)=C[C@H]1O[C@H]2[C@H]3O[C@@]34[C@H](CC[C@@]3(C)[C@@]4(O)CC[C@H]4Cc5c([nH]c6ccc7c(c56)C[C@@H]5[C@@H](C7=O)C(C)(C)OC5(C)C)[C@@]43C)O[C@@H]2C(C)(C)O1` [lolitrem B], the “Renal function (creatinine, urea)” value was “mildly compromised”.
